{
  "source": "paper PMC3639484",
  "about": "(Journal of chromatography. A, 2013)",
  "experiment": "HILIC/SALT",
  "assay_type": "physicochemical",
  "settings": "isocratic acetonitrile 0%, 10%, 20%, 30%, 40%, 50% and 60% in 0.2% aq. H3PO4, 30 °C",
  "data": [
    {"substance": "Ac-KWKSFLKTFSKAKKKKLKTLLKAISK-NH2 [Peptide D14]", "values": [
      {"measurement": "retention on Penta-HILIC column", "value": "No retention"}
    ]}
  ]
}
